≈ marks a conversion by molar mass, not a printed value.
Legend:
in vitro [1] = details: plasma
physchem [2] = details: aqueous, pH 7.4
physchem [3] = details: octanol/aqueous phosphate buffered saline, pH 7.4
in vivo [4] = details: Sprague-Dawley, rat, po, 5 mg/kg
in vivo [5] = details: mouse, po, 5 mg/kg
in vivo [6] = details: Sprague-Dawley, rat, po, 5 mg/kg; remark: listed apart in the source
in vitro [7] = details: mouse, plasma
in vitro [8] = details: rat, plasma
in vitro [9] = details: human, plasma

| fraction unbound (in vitro [1]) | solubility (physchem [2]) [µg/mL] | logD at 1 h (physchem [3]) | bioavailability (in vivo [4]) [%] | Cmax (in vivo [5]) [nM] | Cmax (in vivo [6]) [nM] | fraction unbound (in vitro [7]) | fraction unbound (in vitro [8]) | fraction unbound (in vitro [9]) | Compound |
| --- | --- | --- | --- | --- | --- | --- | --- | --- | --- |
| 0.3 | 630 (≈ 2360 µM) | 2.2 | – | – | – | – | – | – | O=C(Nc1ccncc1)c1c(Cl)cccc1Cl |
| – | – | – | 105 | 1600 | 2500 | 0.04 | 0.04 | 0.05 | O=C(Nc1ccnc(NC(=O)C2CC2)c1)c1c(Cl)cccc1Cl |
